Reference: patent US20100255580A1, “Differentiation of Human Embryonic Stem Cells” (LIFESCCAN, INC., priority 2007, published 2010)

Columns and labels:
[1] = test system: human embryonic stem cell line H1; test: Real-time PCR of definitive endoderm markers, H1 on human serum or […] (Examples 30, 31, 35); type: cell-based; conditions: for expression of definitive endoderm markers: H1 passage 55 on human serum coated plates, with activin A, vs activin A only
Procedure: Cultures of the human embryonic stem cell line H1 at passage 55 were grown and differentiated on human serum (Sigma, #H1388, MO) coated plates. 0.5 ml of human serum was added to each well of 6 well tissue culture treated dish, incubated for 1 hr at room temperature, and aspirated before adding human embryonic stem cells. After cells reached 80% confluency, they were treated as follows: 2 days 0.5% FBS containing 10 ng/ml mouse recombinant Wnt3a (R&D) or 100 nM GSK-3B inhibitor IX (Catalog #361550, Calbiochem, CA) and 100 ng/mlActivin A (R&D). This was followed by 3 days 2% FBS plus 100 ng/mlActivin A. Cultures were then analyzed by real-time PCR (FIG. 46, panels a & b). […] These findings parallel our findings for human embryonic stem cells cultured on […]™ or human fibronectin coated plates.
The effectiveness of a number of commercially available GSK-3B inhibitors was evaluated in formation of DE from human embryonic stem cells. The following GSK-3B inhibitors were evaluated at 100 nM: GSK-3B inhibitor VIII (Catalog #361549, Calbiochem, CA), GSK-3B inhibitor IX (Catalog #361550, Calbiochem, CA), GSK-3B inhibitor XI (Catalog #361553, Calbiochem, CA), GSK-3B inhibitor XII (Catalog #361554, Calbiochem, CA). […] Control cultures were treated with low serum plus high dose of AA. FIG. 47, panels a and b depicts the gene expression of definitive endoderm markers at day 5. GSK-3B inhibitor IX and XI were both effective in inducing DE formation as compared to GSK-3B inhibitor VIII and XII.
The following combinations of WNT1+AA were tested:
a) 20 ng/ml of WNT1+100 ng/ml AA in 0.5% FBS+DM-F12 for days 1-2 followed by 2% FBS+DM-F12+100 ng/ml AA for day three, b) 20 ng/ml of WNT1+100 ng/ml AA in 0.5% FBS+DM-F12 for days 1-2 followed by 2% FBS+DM-F12+100 ng/ml AA for days 3-5, c) 10 ng/ml of WNT1+100 ng/ml AA in 0.5% FBS+DM-F12 for days 1-2 followed by 2% FBS+DM-F12+100 ng/ml AA for day three, d) 10 ng/ml of WNT1+100 ng/ml AA in 0.5% FBS+DM-F12 for days 1-2 followed by 2% FBS+DM-F12+100 ng/ml AA for days 3-5, e) 20 ng/ml of WNT1+100 ng/ml AA in 0.5% FBS+DM-F12 for days 1-2 followed by 2% FBS+DM-F12+100 ng/ml AA+20 ng/ml of WNT1 for day three, f) 20 ng/ml of WNT1+100 ng/ml AA in 0.5% FBS+DM-F12 for days 1-2 followed by 2% FBS+DM-F12+100 ng/ml AA+20 ng/ml of WNT1 for days 3-5.

[2] = test system: human embryonic stem cell line H7; test: FACS analysis of protein expression following activin A treatment, H7; type: cell-based; conditions: AA 100 ng/ml
Text: The level of expression of definitive endoderm markers was examined by PCR (FIG. 1), FACS (results summarized in Table II), and immunohistochemistry (FIG. 2).
CXCR4 positive cells were also highly positive for C-kit, EPCAM, CD99, and negative for CD9. The expression pattern for these markers was consistent among all three hES cell lines examined (Table IIB for H7 and Table IIC for H1). […] In parallel, almost 100% of the differentiated cells were […] (FIG. 2).
Adhered cells were removed from culture plates by five-minute incubation with TrypLE™ Express solution (Invitrogen, CA). Released cells were resuspended in human embryonic stem cell culture medium and recovered by centrifugation, followed by washing and resuspending the cells in a staining buffer consisting of 2% BSA, 0.05% sodium azide in PBS (Sigma, MO). As appropriate, the cells were Fc-receptor blocked for 15 minutes using a 0.1% γ-globulin (Sigma) solution. […] Controls included appropriate isotype matched antibodies, unstained cells, and cells stained only with secondary conjugated antibody. All incubations with antibodies were performed for 30 mins at 4° C. after which the cells were washed with the staining buffer. Samples that were stained with unconjugated primary antibodies were incubated for an additional 30 mins at 4° C. with secondary conjugated PE or -APC labeled antibodies. See Table I for a list of secondary antibodies used. Washed cells were pelleted and resuspended in the staining buffer, and the cell surface molecules were identified using a FACS Array (BD Biosciences) instrument, collecting at least 10,000 events.

[3] = test system: H9P44 cells; test: RT-PCR of definitive endoderm markers, growth factor combinations in low serum on MEFs (Example 22); type: cell-based, human; conditions: H9P44 on MEF; Day 3; normalized to Group 1 (control)
Procedure: Real-time PCR amplification and quantitative analysis.
Final data were expressed relative to a calibrator sample.
H9P44 cells were plated onto 6 well plates previously coated with mitomycin treated mouse embryonic fibroblasts (MEF). Cells were grown until 70 to 80% confluency in ES cell medium consisting of DMEM/F12 (Invitrogen/GIBCO) supplemented with 20% knockout serum replacement, 100 nM MEM nonessential amino acids, 0.5 mM beta-mercaptoethanol, 2 mM L-glutamine (all from Invitrogen/GIBCO) and 8 ng/ml human basic fibroblast growth factor (bFGF) (R&D Systems).
Growth factors were added to increasing concentration of FBS in a stepwise manner as indicated in the following regimen: • Day 0: 0% FBS in DMEM/F12 • Day 1: 0.5% FBS in DMEM/F12 • Day 2: 2% FBS in DMEM/F12. • Day 3: Cells were harvested for FACS analysis and RT-PCR.
All growth factors were purchased from R&D Systems, MN. A detailed description and concentration of growth factors for each treatment group is shown below.
For RT-PCR analysis, cells were analyzed for expression of selected panel of definitive endoderm markers.

Row | Compound | expression of definitive endoderm markers [1] | inducing DE formation ([1]; H1P54 on MATRIGEL, 100 nM for first two days, compared to GSK-3B inhibitor VIII and XII) | CXCR4+ ([2]; 1-day) | CXCR4+ C-Kit+ ([2]; 1-day) | CXCR4+ CD9+ ([2]; 1-day) | CXCR4+ EPCAM+ ([2]; 1-day) | CXCR4+ ([2]; 3-day) | CXCR4+ C-Kit+ ([2]; 3-day) | CXCR4+ CD9+ ([2]; 3-day) | CXCR4+ EPCAM+ ([2]; 3-day) | CXCR4+ ([2]; 5-day) | CXCR4+ C-Kit+ ([2]; 5-day) | CXCR4+ CD9+ ([2]; 5-day) | CXCR4+ EPCAM+ ([2]; 5-day) | CXCR4 relative expression [3] | Goosecoid relative expression [3] | HNF-3B relative expression [3] | Oct-4 relative expression [3] | SOX-2 relative expression [3] | Sox17 relative expression [3]
1 | Wnt-3a | Robust expression |  |  |  |  |  |  |  |  |  |  |  |  |  |  |  |  |  |  | 
2 | O=C1Nc2cc(Br)ccc2/C1=C1/Nc2ccccc2/C1=N\O [GSK-3B inhibitor IX, reference compound] | Robust expression | effective |  |  |  |  |  |  |  |  |  |  |  |  |  |  |  |  |  | 
3 | Activin A: a member of the TGFβ superfamily; R&D Systems; Group 2 = Activin A (100 ng/ml) |  |  | 6% | 2.97% | 8.13% | 14.58% | 38% | 31.56% | 24.11% | 36.67% | 65.5% | 55.21% | 2.1% | 54.5% | 19.5 | 2.8 | 0.64 | 1.1 | 0.91 | 45
